According to ChEMBL document CHEMBL1138591, “Hair growth stimulator property of thienyl substituted pyrazole carboxamide derivatives as a CB1 receptor antagonist with in vivo antiobesity effect” (Bioorg Med Chem Lett, 2009):
Blank lines part the entries; values can stand above or below the compound they belong to. Activity calls are given as the source filed them. The rule behind the calls is not given here.

Experiments:
[1] = molecular target: Cannabinoid receptor 2 (Homo sapiens, UniProt P34972); test: Antagonist activity at human cannabinoid CB2 receptor expressed in CHOK1 cells assessed as cAMP activity; assay type: functional, cell-based, CHO-K1
[2] = tested on: Rattus norvegicus; test: Antiobesity activity in Zucker fa/fa rat assessed as inhibition of 5% sucrose solution intake at 10 mg/kg administered as single dose up to 4 hrs relative to control; assay type: functional
[3] = molecular target: Cannabinoid receptor 1 (Homo sapiens, UniProt P21554); test: Antagonist activity at human cannabinoid CB1 receptor expressed in CHOK1 cells assessed as cAMP activity; assay type: functional, cell-based, CHO-K1
[4] = Drug level in fasted Zucker fa/fa rat white adipose tissue at 30 mg/kg, po after 3 hrs; assay type: ADME, organism-based; set-up: dose 30 mg/kg, route oral; conditions: read-out: Drug uptake
[5] = tested on: Mus musculus; test: Hair growth stimulatory activity in high fat diet-induced C57BL/6J mouse assessed as bald area at 10 mg/kg, po administered once daily for 28 days measured after 28 days (Rvb=0.346 +/- 0.079 cm'2); assay type: functional
[6] = Drug level in fasted Zucker fa/fa rat brain at 30 mg/kg, po after 3 hrs; assay type: ADME, organism-based; set-up: dose 30 mg/kg, route oral; conditions: read-out: Drug uptake
[7] = tested on: Mus musculus; test: Hair growth stimulatory activity in high fat diet-induced C57BL/6J mouse at 10 mg/kg administered tropically for 28 days measured after 28 days; assay type: functional, organism-based; set-up: dose 10 mg/kg
[8] = Plasma concentration in fasted Zucker fa/fa rat at 30 mg/kg, po after 3 hrs; assay type: ADME, organism-based; set-up: dose 30 mg/kg, route oral
[9] = tested on: Mus musculus; test: Inhibition of WIN-55212-2-induced analgesia in Swiss albino mouse assessed as maximal possible effect at 5 mg/kg po by hot plate method; assay type: functional; set-up: scale not given: the % may be the effect or the level left
[10] = tested on: Mus musculus; test: Effect on WIN-55212-2-induced locomotor activity in Swiss albino mouse assessed as number of square crossed at 10 mg/kg po up to 300 seconds (RbV=20.67 +/- 3.38 squares); assay type: functional
[11] = Cmax in fasted Zucker fa/fa rat at 30 mg/kg, po; assay type: ADME, organism-based; set-up: dose 30 mg/kg, route oral; conditions: in vivo
[12] = tested on: Mus musculus; test: Hair growth stimulatory activity in high fat diet-induced C57BL/6J mouse at 10 mg/kg, po administered once daily for 28 days measured after 28 days; assay type: functional, organism-based; set-up: dose 10 mg/kg
[13] = AUC (0 to infinity) in fasted Zucker fa/fa rat at 30 mg/kg, po; assay type: ADME, organism-based; set-up: time infinity, dose 30 mg/kg, route oral; conditions: plasma
[14] = tested on: Mus musculus; test: Antiobesity activity in high fat diet-induced obese C57BL/6J mouse model assessed as reduction in food intake at 10 mg/kg, po administered once daily for 28 days; assay type: functional, organism-based; set-up: dose 10 mg/kg
[15] = tested on: Mus musculus; test: Inhibition of WIN-55212-2-induced catalepsy in Swiss albino mouse assessed as immobility on ring at 10 mg/kg po up to 300 seconds by ring test; assay type: functional; set-up: scale not given: the % may be the effect or the level left
[16] = Half life in fasted Zucker fa/fa rat at 30 mg/kg, po; assay type: ADME, organism-based; set-up: dose 30 mg/kg, route oral; conditions: in vivo
[17] = Drug level in fasted Zucker fa/fa rat brain assessed per gram of brain at 30 mg/kg, po after 3 hrs; assay type: ADME, organism-based; set-up: dose 30 mg/kg, route oral; conditions: read-out: Drug uptake
[18] = tested on: Mus musculus; test: Effect on WIN-55212-2-induced locomotor activity in Swiss albino mouse assessed as number of square crossed at 1 mg/kg po up to 300 seconds (RbV=20.67 +/- 3.38 squares); assay type: functional
[19] = Drug level in fasted Zucker fa/fa rat white adipose tissue assessed per gram of tissue at 30 mg/kg, po after 3 hrs; assay type: ADME, organism-based; set-up: dose 30 mg/kg, route oral; conditions: read-out: Drug uptake
[20] = tested on: Mus musculus; test: Effect on WIN-55212-2-induced locomotor activity in Swiss albino mouse assessed as number of square crossed at 3 mg/kg po up to 300 seconds (RbV=20.67 +/- 3.38 squares); assay type: functional
[21] = tested on: Mus musculus; test: Inhibition of WIN-55212-2-induced analgesia in Swiss albino mouse assessed as maximal possible effect at 10 mg/kg po by hot plate method; assay type: functional; set-up: scale not given: the % may be the effect or the level left
[22] = tested on: Mus musculus; test: Inhibition of WIN-55212-2-induced analgesia in Swiss albino mouse assessed as maximal possible effect at 1 mg/kg po by hot plate method; assay type: functional; set-up: scale not given: the % may be the effect or the level left
[23] = species: Mus musculus; conditions: Swiss albino, 1 mg/kg
Description: Inhibition of WIN-55212-2-induced hypothermia in Swiss albino mouse assessed as change in body temperature at 1 mg/kg po

[24] = tested on: Mus musculus; test: Inhibition of WIN-55212-2-induced catalepsy in Swiss albino mouse assessed as immobility on ring at 3 mg/kg po up to 300 seconds by ring test; assay type: functional; set-up: scale not given: the % may be the effect or the level left
[25] = tested on: Mus musculus; test: Antiobesity activity in high fat diet-induced obese C57BL/6J mouse model assessed as reduction in body weight gain at 10 mg/kg, po administered once daily for 28 days; assay type: functional, organism-based; set-up: dose 10 mg/kg
[26] = tested on: Mus musculus; test: Inhibition of WIN-55212-2-induced catalepsy in Swiss albino mouse assessed as immobility on ring at 1 mg/kg po up to 300 seconds by ring test; assay type: functional; set-up: scale not given: the % may be the effect or the level left
[27] = tested on: Mus musculus; test: Inhibition of WIN-55212-2-induced catalepsy in Swiss albino mouse assessed as immobility on ring at 5 mg/kg po up to 300 seconds by ring test; assay type: functional; set-up: scale not given: the % may be the effect or the level left
[28] = species: Mus musculus; conditions: Swiss albino, 10 mg/kg
Description: Inhibition of WIN-55212-2-induced hypothermia in Swiss albino mouse assessed as change in body temperature at 10 mg/kg po

[29] = species: Mus musculus; conditions: Swiss albino, 5 mg/kg
Description: Inhibition of WIN-55212-2-induced hypothermia in Swiss albino mouse assessed as change in body temperature at 5 mg/kg po

[30] = tested on: Mus musculus; test: Inhibition of WIN-55212-2-induced analgesia in Swiss albino mouse assessed as maximal possible effect at 3 mg/kg po by hot plate method; assay type: functional; set-up: scale not given: the % may be the effect or the level left
[31] = species: Mus musculus; conditions: Swiss albino, 3 mg/kg
Description: Inhibition of WIN-55212-2-induced hypothermia in Swiss albino mouse assessed as change in body temperature at 3 mg/kg po

[32] = tested on: Mus musculus; test: Effect on WIN-55212-2-induced locomotor activity in Swiss albino mouse assessed as number of square crossed at 5 mg/kg po up to 300 seconds (RbV=20.67 +/- 3.38 squares); assay type: functional
[33] = Tmax in fasted Zucker fa/fa rat at 30 mg/kg, po; assay type: ADME, organism-based; set-up: dose 30 mg/kg, route oral; conditions: in vivo

Sequence of Cannabinoid receptor 1 (P21554 whole entry): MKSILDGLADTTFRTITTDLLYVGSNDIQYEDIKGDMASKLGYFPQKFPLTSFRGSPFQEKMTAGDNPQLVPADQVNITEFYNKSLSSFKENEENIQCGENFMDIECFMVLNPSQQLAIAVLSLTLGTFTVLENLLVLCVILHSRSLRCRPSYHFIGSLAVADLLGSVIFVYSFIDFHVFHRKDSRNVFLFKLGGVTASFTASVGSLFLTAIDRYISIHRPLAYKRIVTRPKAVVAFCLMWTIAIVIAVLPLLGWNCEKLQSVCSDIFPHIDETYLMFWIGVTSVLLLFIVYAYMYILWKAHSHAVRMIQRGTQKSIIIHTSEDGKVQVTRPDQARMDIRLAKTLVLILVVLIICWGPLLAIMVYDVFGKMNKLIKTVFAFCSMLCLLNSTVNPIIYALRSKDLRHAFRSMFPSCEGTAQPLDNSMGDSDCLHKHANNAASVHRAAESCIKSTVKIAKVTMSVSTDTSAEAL
Sequence of Cannabinoid receptor 2 (P34972 whole entry): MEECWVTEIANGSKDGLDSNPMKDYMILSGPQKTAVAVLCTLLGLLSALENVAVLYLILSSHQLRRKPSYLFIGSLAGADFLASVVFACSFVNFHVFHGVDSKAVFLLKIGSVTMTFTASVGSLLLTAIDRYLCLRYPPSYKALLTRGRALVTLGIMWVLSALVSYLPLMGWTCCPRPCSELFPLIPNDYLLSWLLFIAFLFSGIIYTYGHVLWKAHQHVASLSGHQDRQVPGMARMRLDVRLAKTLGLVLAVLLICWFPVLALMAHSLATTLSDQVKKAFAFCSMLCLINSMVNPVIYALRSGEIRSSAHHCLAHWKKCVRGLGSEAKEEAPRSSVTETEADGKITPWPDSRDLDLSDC

EC50 [1]: 7.43 µM | EC50 [3]: 0.69 µM
Compound: Cc1c(C(=O)NN2CCOCC2)nn(-c2ccc(Cl)cc2Cl)c1-c1ccc(Cl)s1
inhibition in vivo at 10 mg/kg [2]: 31.5%

EC50 [1]: 12.8 µM | EC50 [3]: 1.1 µM
Compound: Cc1c(C(=O)NN2CCCCCC2)nn(-c2ccc(Cl)cc2Cl)c1-c1ccc(Cl)s1
inhibition in vivo at 10 mg/kg [2]: 20.1%

EC50 [1]: 23.2 µM | EC50 [3]: 0.4 µM
Compound: Cc1c(C(=O)NN2CCCCC2)nn(-c2ccc(Cl)cc2Cl)c1-c1ccc(Br)s1
inhibition in vivo at 10 mg/kg [2]: 37.8%

EC50 [1]: 29.4 µM | EC50 [3]: 0.32 µM
Compound: Cc1c(C(=O)NN2CCCCC2)nn(-c2ccc(Cl)cc2Cl)c1-c1ccc(I)s1
inhibition in vivo at 10 mg/kg [2]: 42.1%

EC50 [1]: 7.55 µM | EC50 [3]: 1.33 µM
Compound: Cc1c(C(=O)NN2CCCCC2)nn(-c2ccc(Cl)cc2Cl)c1-c1cccs1
inhibition in vivo at 10 mg/kg [2]: 12.4%

EC50 [1]: 25.9 µM | EC50 [3]: 0.54 µM
Compound: CCc1c(C(=O)NN2CCCCC2)nn(-c2ccc(Cl)cc2Cl)c1-c1ccc(Cl)s1
inhibition in vivo at 10 mg/kg [2]: 31.3%

EC50 [1]: 15.7 µM | EC50 [3]: 0.8 µM
Compound: Cc1c(C(=O)NN2CC3CCCC3C2)nn(-c2ccc(Cl)cc2Cl)c1-c1ccc(Cl)s1 (stereo unspecified)
inhibition in vivo at 10 mg/kg [2]: 26.3%

EC50 [1]: 20.9 µM | EC50 [3]: 1 µM
Compound: Cc1c(C(=O)NN2CCCC2)nn(-c2ccc(Cl)cc2Cl)c1-c1ccc(Cl)s1
inhibition in vivo at 10 mg/kg [2]: 34.3%

concentration at 3 h [4]: 1400 ng/mL | concentration at 3 h [6]: 150 ng/mL | concentration at 3 h [8]: 400 ng/mL
Compound: Cc1c(C(=O)NN2CCCCC2)nn(-c2ccc(Cl)cc2Cl)c1-c1ccc(Cl)cc1 [RIMONABANT]
Activity [5]: 0.156 cm2 | Activity [7]: inactive | inhibition in vivo at 10 mg/kg [2]: 40.1%

EC50 [1]: 19.5 µM | EC50 [3]: 0.51 µM
Compound: CCc1c(C(=O)NN2CCCCC2)nn(-c2ccc(Cl)cc2Cl)c1-c1ccc(Br)s1
inhibition in vivo at 10 mg/kg [2]: 39.2%

concentration at 3 h [4]: 980 ng/mL | Cmax [11]: 520 ng/mL | concentration at 3 h [6]: 210 ng/mL | AUC(0-inf) [13]: 12400 ng·h/mL | half-life [16]: 20.8 h | EC50 [1]: 23.7 µM | concentration at 3 h [17]: 640 ng/g | concentration at 3 h [19]: 2970 ng/g | concentration at 3 h [8]: 850 ng/mL | EC50 [3]: 0.58 µM | Tmax [33]: 1.4 h
Compound: Cc1c(C(=O)NN2CCCCC2)nn(-c2ccc(Cl)cc2Cl)c1-c1ccc(Cl)s1
Activity [5]: 0.011 cm2 | Activity [9]: 4.12% | Activity [10]: 171.4 | Activity [12]: Active | Activity [14]: Active | Activity [15]: 41.8% | Activity [18]: 69.8 | Activity [7]: inactive | inhibition in vivo at 10 mg/kg [2]: 48% | Activity [20]: 109.2 | Activity [21]: 4.35% | Activity [22]: 34.84% | deltaT [23]: 2.56 °C | Activity [24]: 73.13% | Activity [25]: Active | Activity [26]: 80.73% | Activity [27]: 58.13% | deltaT [28]: 0.23 °C | deltaT [29]: 0.23 °C | Activity [30]: 12.28% | deltaT [31]: 1.92 °C | Activity [32]: 126.5
